IC50 data for 25 compounds are collected here from patent US9763957B2, “Autotaxin inhibitors” (Novartis AG, priority 2013, dated 2017).

By IC50 is commonly meant the midpoint of a concentration-inhibition curve.

The target of this assay is Recombinant human ATX (Homo sapiens (Human), UniProt Q13822). In words: ATX inhibition assay (choline release, Amplex Red fluorescence). It is filed as biochemical. To be noted: ATX 10 nM, LPC 18:1 10 μM, 37° C., 20 min pre-incubation; mean of n≧2. Here is the method: Reagents—LPC (oleoyl (18:1)) was purchased from Avanti Polar Lipids (Alabaster, Ala.) and solubilized in methanol to 20 mM. Amplex Red was obtained from Invitrogen Life Technologies (Paisley, UK) and dissolved in DMSO to 10 mM. Choline oxidase and horseradish peroxidase (HRP) were obtained from Sigma Aldrich (Dorset, UK) and dissolved in HBSS to 20 U/ml and 200 U/ml respectively. All reagents were stored at −20° C. in single use aliquots. All experimental measurements were performed in assay buffer made up immediately prior to use (HBSS, 0.01% BSA essentially fatty acid free).
PerkinElmer EnVision (Fluorescence Intensity/Absorbance Monochromator) or Tecan Infinite 200 PRO series plate reader was used to detect change in fluorescent intensity.
Assessing ATX inhibition—ATX activity was determined by measurement of released choline in reactions containing ATX (10 nM), choline oxidase (0.1 U/ml), HRP (100 U/ml), amplex red (50 μM) and LPC 18:1 (10 μM). Compounds of the invention were prepared as 10 point serial dilutions from 1 μM in duplicate and pre-incubated with ATX at 37° C. for 20 minutes prior to the addition of remaining reagents. The liberated choline was measured from changes in fluorescence intensity (λex 530 nm, λem 590 nm) of the product resurofin at 37° C. every 2 minutes over a 40-minute period. ATX activity was measured as a slope of the linear portion of the progress curve, typically between 14 to 24 minutes.
Data analysis—Slope data was exported to Graphpad prism (Graphpad software, San Diego, Calif.) where data was fitted to equation 1. Y=Bottom+(Top-Bottom)/(1+10^((Log IC50−X)*HillSlope)) Equation 1: […]
For `Cc1nnn(Cc2cc(C(F)(F)F)ccc2CCC(=O)N2CCC(c3nnc(C)o3)CC2)n1` [Example 40, 1-(4-(5-Methyl-1,3,4-oxadiazol-2-yl)piperidin-1-yl)-3-(2-((5-methyl-2H-tetrazol-2-yl)methyl)-4-(trifluoromethyl)phenyl)propan-1-one], the IC50 was found to be 42 nM.

With `Cc1nnn(Cc2cccc(Cl)c2/C=C/C(=O)N2CCC(Cc3nnc(C)o3)CC2)n1` [Example 46, (E)-3-(2-Chloro-6-((5-methyl-2H-tetrazol-2-yl)methyl)phenyl)-1-(4-((5-methyl-1,3,4-oxadiazol-2-yl)methyl)piperidin-1-yl)prop-2-en-1-one], the IC50 was 204 nM.

With `Cc1noc(C2CCCCN2C(=O)/C=C/c2ccc(Cl)cc2Cn2nnc(C)n2)n1` (single isomer, unassigned) [Example 23a, (R)- or (S)-(E)-3-(4-Chloro-2-((5-methyl-2H-tetrazol-2-yl)methyl)phenyl)-1-(2-(3-methyl-1,2,4-oxadiazol-5-yl)piperidin-1-yl)prop-2-en-1-one], the IC50 came to 9.5 nM.

Consider `Cc1nnn(Cc2cc(Cl)ccc2/C=C/C(=O)N2CCCC(c3nc(C(C)C)no3)C2)n1` (racemic) [Example 34, (rac)-(E)-3-(4-Chloro-2-((5-methyl-2H-tetrazol-2-yl)methyl)phenyl)-1-(3-(3-isopropyl-1,2,4-oxadiazol-5-yl)piperidin-1-yl)prop-2-en-1-one], for which the IC50 came out at 29 nM.

For the compound `Cc1nnn(Cc2cc(C(F)(F)F)ccc2/C=C/C(=O)N2CCC(N3CCCCC3=O)CC2)n1` [Example 97, (E)-1′-(3-(2-((5-Methyl-2H-tetrazol-2-yl)methyl)-4-(trifluoromethyl)phenyl)acryloyl)-[1,4′-bipiperidin]-2-one], the IC50 stood at 23 nM.

Take `Cc1nnn(Cc2cc(Cl)ccc2/C=C/C(=O)N2CCC(C(O)c3ccc(Cl)cc3)CC2)n1` (single isomer, unassigned) [Example 66b, ((R or S), E)-3-(4-Chloro-2-((5-methyl-2H-tetrazol-2-yl)methyl)phenyl)-1-(4-((4-chlorophenyl)(hydroxy)methyl)piperidin-1-yl)prop-2-en-1-one]: the IC50 turned out to be 4.6 nM.

Consider `Cc1nnn(Cc2cc(Cl)ccc2/C=C/C(=O)N2CCC(CCCc3nnc(C)o3)CC2)n1` [Example 26, (E)-3-(4-Chloro-2-((5-methyl-2H-tetrazol-2-yl)methyl)phenyl)-1-(4-(3-(5-methyl-1,3,4-oxadiazol-2-yl)propyl)piperidin-1-yl)prop-2-en-1-one], for which the IC50 worked out at 31 nM.

Take `Cc1nnn(Cc2cc(Cl)ccc2/C=C/C(=O)N2CC(c3nnc(C)o3)C2)n1` [Example 85, (E)-3-(4-Chloro-2-((5-methyl-2H-tetrazol-2-yl)methyl)phenyl)-1-(3-(5-methyl-1,3,4-oxadiazol-2-yl)azetidin-1-yl)prop-2-en-1-one]: the IC50 was found to be 289 nM.

In the case of `Cc1nnn(Cc2cc(C(F)(F)F)ccc2/C=C/C(=O)N2CCN(Cc3ccn(C)n3)CC2)n1` [Example 89, (E)-1-(4-((1-Methyl-1H-pyrazol-3-yl)methyl)piperazin-1-yl)-3-(2-((5-methyl-2H-tetrazol-2-yl)methyl)-4-(trifluoromethyl)phenyl)prop-2-en-1-one], the IC50 worked out at 3.5 nM.

Turning to `Cc1nnn(Cc2cc(C(F)(F)F)ccc2/C=C/C(=O)N2CCCCC2c2noc(C)n2)n1` (single isomer, unassigned) [Example 38a, (R or S, E)-1-(2-(5-Methyl-1,2,4-oxadiazol-3-yl)piperidin-1-yl)-3-(2-((5-methyl-2H-tetrazol-2-yl)methyl)-4-(trifluoromethyl)phenyl)prop-2-en-1-one], the concentration for half-maximal inhibition (IC50) came out at 20 nM.

In the case of `Cc1nnn(Cc2cc(C(F)(F)F)ccc2/C=C/C(=O)N2CCC(NC(=O)CCCCCc3cnn[nH]3)CC2)n1` [Example 156, (E)-N-(1-(3-(2-((5-Methyl-2H-tetrazol-2-yl)methyl)-4-(trifluoromethyl)phenyl)acryloyl)piperidin-4-yl)-6-(1H-1,2,3-triazol-5-yl)hexanamide], the IC50 amounted to 5.3 nM.

Regarding `Cc1nnn(Cc2cc(C(F)(F)F)ccc2/C=C/C(=O)N2CCC(CCOCCc3cnn[nH]3)CC2)n1` [Example 157, (E)-1-(4-(2-(2-(1H-1,2,3-Triazol-5-yl)ethoxy)ethyl)piperidin-1-yl)-3-(2-((5-methyl-2H-tetrazol-2-yl)methyl)-4-(trifluoromethyl)phenyl)prop-2-en-1-one], the IC50 was 9.2 nM.

`Cc1cnn(CC2CCN(C(=O)/C=C/c3ccc(Cl)cc3Cn3nnc(C)n3)CC2)n1` [Example 120, (E)-3-(4-Chloro-2-((5-methyl-2H-tetrazol-2-yl)methyl)phenyl)-1-(4-((4-methyl-2H-1,2,3-triazol-2-yl)methyl)piperidin-1-yl)prop-2-en-1-one]: the IC50 turned out to be 8.1 nM.

For the compound `Cc1nnn(Cc2cc(C(F)(F)F)ccc2CCC(=O)N2CCC(CCCCCc3c[nH]nn3)CC2)n1` [Example 153, 1-(4-(5-(1H-1,2,3-Triazol-4-yl)pentyl)piperidin-1-yl)-3-(2-((5-methyl-2H-tetrazol-2-yl)methyl)-4-(trifluoromethyl)phenyl)propan-1-one], the IC50 worked out at 2 nM.

With `Cc1nnn(Cc2cc(Cl)ccc2/C=C/C(=O)N2CCC(c3nnc(CC(F)(F)F)o3)CC2)n1` [Example 141, (E)-3-(4-Chloro-2-((5-methyl-2H-tetrazol-2-yl)methyl)phenyl)-1-(4-(5-(2,2,2-trifluoroethyl)-1,3,4-oxadiazol-2-yl)piperidin-1-yl)prop-2-en-1-one], the IC50 stood at 11 nM.

`COCC1CCN(C(=O)/C=C/c2ccc(C(F)(F)F)cc2Cn2nnc(C)n2)CC1` [Example 99, (E)-1-(4-(Methoxymethyl)piperidin-1-yl)-3-(2-((5-methyl-2H-tetrazol-2-yl)methyl)-4-(trifluoromethyl)phenyl)prop-2-en-1-one]: the IC50 was determined as 25 nM.

Regarding `Cc1nnn(Cc2cc(Cl)ccc2/C=C/C(=O)N2CCC(Oc3ccccc3C(=O)N(C)C)CC2)n1` [Example 49.13, (E)-2-((1-(3-(4-Chloro-2-((5-methyl-2H-tetrazol-2-yl)methyl)phenyl)acryloyl)piperidin-4-yl)oxy)-N,N-dimethyl benzamide], the IC50 came out at 17 nM.

`Cc1nnn(Cc2cc(Cl)ccc2/C=C/C(=O)N2CCC(Cn3nnc(C)n3)CC2)n1` [Example 109, (E)-3-(4-Chloro-2-((5-methyl-2H-tetrazol-2-yl)methyl)phenyl)-1-(4-((5-methyl-2H-tetrazol-2-yl)methyl)piperidin-1-yl)prop-2-en-1-one]: the IC50 turned out to be 16 nM.

For the compound `Cc1cnn(C2CCN(C(=O)/C=C/c3ccc(Cl)cc3Cn3nnc(C)n3)CC2)n1` [Example 25, (E)-3-(4-Chloro-2-((5-methyl-2H-tetrazol-2-yl)methyl)phenyl)-1-(4-(4-methyl-2H-1,2,3-triazol-2-yl)piperidin-1-yl)prop-2-en-1-one], the IC50 was 8.5 nM.

`Cc1nnn(Cc2cc(OC(F)F)ccc2/C=C/C(=O)N2CCC(Cc3nnc(C)o3)CC2)n1` [Example 58, (E)-3-(4-(Difluoromethoxy)-2-((5-methyl-2H-tetrazol-2-yl)methyl)phenyl)-1-(4-((5-methyl-1,3,4-oxadiazol-2-yl)methyl)piperidin-1-yl)prop-2-en-1-one]: the IC50 is 53 nM.

`Cc1nnn(Cc2cc(Cl)ccc2/C=C/C(=O)N2CCC(NC(=O)CCCc3c[nH]nn3)CC2)n1` [Example 151, (E)-N-(1-(3-(4-Chloro-2-((5-methyl-2H-tetrazol-2-yl)methyl)phenyl)acryloyl)piperidin-4-yl)-4-(1H-1,2,3-triazol-4-yl)butanamide]: the IC50 was found to be 3.1 nM.

On to `Cc1noc(CN2CCN(C(=O)/C=C/c3ccc(C(F)(F)F)cc3Cn3nnc(C)n3)CC2)n1` [Example 88, (E)-1-(4-((3-Methyl-1,2,4-oxadiazol-5-yl)methyl)piperazin-1-yl)-3-(2-((5-methyl-2H-tetrazol-2-yl)methyl)-4-(trifluoromethyl)phenyl)prop-2-en-1-one], for which the IC50 stood at 16 nM.

As to `Cc1nnn(Cc2cc(Cl)ccc2/C=C/C(=O)N2CCN(c3ncccc3C(=O)N3CCCC3)CC2)n1` [Example 49.29, (E)-3-(4-Chloro-2-((5-methyl-2H-tetrazol-2-yl)methyl)phenyl)-1-(4-(3-(pyrrolidine-1-carbonyl)pyridin-2-yl)piperazin-1-yl)prop-2-en-1-one], the IC50 stood at 78 nM.

For the compound `CCc1nnc(C2CCN(C(=O)/C=C/c3ccc(C(F)(F)F)cc3Cn3nnc(C)n3)CC2)o1` [Example 92, (E)-1-(4-(5-Ethyl-1,3,4-oxadiazol-2-yl)piperidin-1-yl)-3-(2-((5-methyl-2H-tetrazol-2-yl)methyl)-4-(trifluoromethyl)phenyl)prop-2-en-1-one], the IC50 was 3.6 nM.

Turning to `Cc1nnn(Cc2cc(Cl)ccc2/C=C/C(=O)N2CCCC[C@H]2C)n1` [Example 49.14, (R,E)-3-(4-Chloro-2-((5-methyl-2H-tetrazol-2-yl)methyl)phenyl)-1-(2-methylpiperidin-1-yl)prop-2-en-1-one], the IC50 came out at 85 nM.
